Test results published in ChEMBL document CHEMBL3045835, “Comparative study of conventional and microwave-assisted synthesis of some Schiff bases and their potential as antimicrobial agents” (2012).

Legend:
Assay type in all cases: functional
[1] = test system: Pseudomonas aeruginosa; assay: Antibacterial activity against Pseudomonas aeruginosa MTCC 424 at 500 ug/ml after 18 hr by cup-plate method; details: MTCC 424, 18 h, read-out: DIZ
[2] = test system: Pseudomonas aeruginosa; assay: Antibacterial activity against Pseudomonas aeruginosa MTCC 424 at 200 ug/ml after 18 hr by cup-plate method; details: MTCC 424, 18 h, read-out: DIZ
[3] = test system: Pseudomonas aeruginosa; assay: Antibacterial activity against Pseudomonas aeruginosa MTCC 424 at 100 ug/ml after 18 hr by cup-plate method; details: MTCC 424, 18 h, read-out: DIZ
[4] = test system: Micrococcus luteus; assay: Antibacterial activity against Micrococcus luteus MTCC 1538 at 1500 ug/ml after 18 hr by cup-plate method; details: MTCC 1538, 18 h, read-out: DIZ
[5] = test system: Micrococcus luteus; assay: Antibacterial activity against Micrococcus luteus MTCC 1538 at 1000 ug/ml after 18 hr by cup-plate method; details: MTCC 1538, 18 h, read-out: DIZ
[6] = test system: Micrococcus luteus; assay: Antibacterial activity against Micrococcus luteus MTCC 1538 at 500 ug/ml after 18 hr by cup-plate method; details: MTCC 1538, 18 h, read-out: DIZ
[7] = test system: Micrococcus luteus; assay: Antibacterial activity against Micrococcus luteus MTCC 1538 at 200 ug/ml after 18 hr by cup-plate method; details: MTCC 1538, 18 h, read-out: DIZ
[8] = test system: Micrococcus luteus; assay: Antibacterial activity against Micrococcus luteus MTCC 1538 at 100 ug/ml after 18 hr by cup-plate method; details: MTCC 1538, 18 h, read-out: DIZ
[9] = test system: Bacillus pumilus; assay: Antibacterial activity against Bacillus pumilus MTCC 1456 at 1500 ug/ml after 18 hr by cup-plate method; details: MTCC 1456, 18 h, read-out: DIZ
[10] = test system: Bacillus pumilus; assay: Antibacterial activity against Bacillus pumilus MTCC 1456 at 1000 ug/ml after 18 hr by cup-plate method; details: MTCC 1456, 18 h, read-out: DIZ
[11] = test system: Bacillus pumilus; assay: Antibacterial activity against Bacillus pumilus MTCC 1456 at 500 ug/ml after 18 hr by cup-plate method; details: MTCC 1456, 18 h, read-out: DIZ
[12] = test system: Bacillus pumilus; assay: Antibacterial activity against Bacillus pumilus MTCC 1456 at 200 ug/ml after 18 hr by cup-plate method; details: MTCC 1456, 18 h, read-out: DIZ
[13] = test system: Bacillus pumilus; assay: Antibacterial activity against Bacillus pumilus MTCC 1456 at 100 ug/ml after 18 hr by cup-plate method; details: MTCC 1456, 18 h, read-out: DIZ
[14] = test system: Bacillus subtilis; assay: Antibacterial activity against Bacillus subtilis MTCC 441 at 1000 ug/ml after 18 hr by cup plate method; details: MTCC 441, 18 h, read-out: DIZ
[15] = test system: Bacillus subtilis; assay: Antibacterial activity against Bacillus subtilis MTCC 441 at 1500 ug/ml after 18 hr by cup plate method; details: MTCC 441, 18 h, read-out: DIZ
[16] = test system: Bacillus subtilis; assay: Antibacterial activity against Bacillus subtilis MTCC 441 at 500 ug/ml after 18 hr by cup plate method; details: MTCC 441, 18 h, read-out: DIZ
[17] = test system: Bacillus subtilis; assay: Antibacterial activity against Bacillus subtilis MTCC 441 at 200 ug/ml after 18 hr by cup plate method; details: MTCC 441, 18 h, read-out: DIZ
[18] = test system: Bacillus subtilis; assay: Antibacterial activity against Bacillus subtilis MTCC 441 at 100 ug/ml after 18 hr by cup plate method; details: MTCC 441, 18 h, read-out: DIZ
[19] = test system: Staphylococcus aureus; assay: Antibacterial activity against Staphylococcus aureus MTCC 1430 at 1500 ug/ml after 18 hr by cup-plate method; details: MTCC 1430, 18 h, read-out: DIZ
[20] = test system: Staphylococcus aureus; assay: Antibacterial activity against Staphylococcus aureus MTCC 1430 at 1000 ug/ml after 18 hr by cup-plate method; details: MTCC 1430, 18 h, read-out: DIZ
[21] = test system: Staphylococcus aureus; assay: Antibacterial activity against Staphylococcus aureus MTCC 1430 at 500 ug/ml after 18 hr by cup-plate method; details: MTCC 1430, 18 h, read-out: DIZ
[22] = test system: Staphylococcus aureus; assay: Antibacterial activity against Staphylococcus aureus MTCC 1430 at 200 ug/ml after 18 hr by cup-plate method; details: MTCC 1430, 18 h, read-out: DIZ
[23] = test system: Staphylococcus aureus; assay: Antibacterial activity against Staphylococcus aureus MTCC 1430 at 100 ug/ml after 18 hr by cup-plate method; details: MTCC 1430, 18 h, read-out: DIZ
[24] = test system: Penicillium chrysogenum; assay: Antifungal activity against Penicillium chrysogenum MTCC 161 after 24 hr by broth dilution method; details: MTCC 161, 24 h
[25] = test system: Aspergillus niger; assay: Antifungal activity against Aspergillus niger MTCC 2546 after 24 hr by broth dilution method; details: MTCC 2546, 24 h
[26] = test system: Escherichia coli; assay: Antibacterial activity against Escherichia coli MTCC 1573 after 24 hr by broth dilution method; details: MTCC 1573, 24 h
[27] = test system: Pseudomonas fluorescens; assay: Antibacterial activity against Pseudomonas fluorescens MTCC 2421 after 24 hr by broth dilution method; details: MTCC 2421, 24 h
[28] = test system: Pseudomonas aeruginosa; assay: Antibacterial activity against Pseudomonas aeruginosa MTCC 424 after 24 hr by broth dilution method; details: MTCC 424, 24 h
[29] = test system: Micrococcus luteus; assay: Antibacterial activity against Micrococcus luteus MTCC 1538 after 24 hr by broth dilution method; details: MTCC 1538, 24 h
[30] = test system: Bacillus pumilus; assay: Antibacterial activity against Bacillus pumilus MTCC 1456 after 24 hr by broth dilution method; details: MTCC 1456, 24 h
[31] = test system: Staphylococcus aureus; assay: Antibacterial activity against Staphylococcus aureus MTCC 1430 after 24 hr by broth dilution method; details: MTCC 1430, 24 h
[32] = test system: Bacillus subtilis; assay: Antibacterial activity against Bacillus subtilis MTCC 441 after 24 hr by broth dilution method; details: MTCC 441, 24 h
[33] = test system: Pseudomonas fluorescens; assay: Antibacterial activity against Pseudomonas fluorescens MTCC 2421 at 1000 ug/ml after 18 hr by cup-plate method; details: MTCC 2421, 18 h, read-out: DIZ
[34] = test system: Pseudomonas fluorescens; assay: Antibacterial activity against Pseudomonas fluorescens MTCC 2421 at 1500 ug/ml after 18 hr by cup-plate method; details: MTCC 2421, 18 h, read-out: DIZ
[35] = test system: Pseudomonas fluorescens; assay: Antibacterial activity against Pseudomonas fluorescens MTCC 2421 at 500 ug/ml after 18 hr by cup-plate method; details: MTCC 2421, 18 h, read-out: DIZ
[36] = test system: Pseudomonas fluorescens; assay: Antibacterial activity against Pseudomonas fluorescens MTCC 2421 at 200 ug/ml after 18 hr by cup-plate method; details: MTCC 2421, 18 h, read-out: DIZ
[37] = test system: Penicillium chrysogenum; assay: Antifungal activity against Penicillium chrysogenum MTCC 161 at 1500 ug/ml after 18 hr by cup-plate method; details: MTCC 161, 18 h, read-out: DIZ
[38] = test system: Penicillium chrysogenum; assay: Antifungal activity against Penicillium chrysogenum MTCC 161 at 1000 ug/ml after 18 hr by cup-plate method; details: MTCC 161, 18 h, read-out: DIZ
[39] = test system: Penicillium chrysogenum; assay: Antifungal activity against Penicillium chrysogenum MTCC 161 at 500 ug/ml after 18 hr by cup-plate method; details: MTCC 161, 18 h, read-out: DIZ
[40] = test system: Penicillium chrysogenum; assay: Antifungal activity against Penicillium chrysogenum MTCC 161 at 200 ug/ml after 18 hr by cup-plate method; details: MTCC 161, 18 h, read-out: DIZ
[41] = test system: Penicillium chrysogenum; assay: Antifungal activity against Penicillium chrysogenum MTCC 161 at 100 ug/ml after 18 hr by cup-plate method; details: MTCC 161, 18 h, read-out: DIZ
[42] = test system: Aspergillus niger; assay: Antifungal activity against Aspergillus niger MTCC 2546 at 1000 ug/ml after 18 hr by cup-plate method; details: MTCC 2546, 18 h, read-out: DIZ
[43] = test system: Aspergillus niger; assay: Antifungal activity against Aspergillus niger MTCC 2546 at 1500 ug/ml after 18 hr by cup-plate method; details: MTCC 2546, 18 h, read-out: DIZ
[44] = test system: Aspergillus niger; assay: Antifungal activity against Aspergillus niger MTCC 2546 at 500 ug/ml after 18 hr by cup-plate method; details: MTCC 2546, 18 h, read-out: DIZ
[45] = test system: Aspergillus niger; assay: Antifungal activity against Aspergillus niger MTCC 2546 at 100 ug/ml after 18 hr by cup-plate method; details: MTCC 2546, 18 h, read-out: DIZ
[46] = test system: Aspergillus niger; assay: Antifungal activity against Aspergillus niger MTCC 2546 at 200 ug/ml after 18 hr by cup-plate method; details: MTCC 2546, 18 h, read-out: DIZ
[47] = test system: Escherichia coli; assay: Antibacterial activity against Escherichia coli MTCC 1573 at 1500 ug/ml after 18 hr by cup-plate method; details: MTCC 1573, 18 h, read-out: DIZ
[48] = test system: Escherichia coli; assay: Antibacterial activity against Escherichia coli MTCC 1573 at 500 ug/ml after 18 hr by cup-plate method; details: MTCC 1573, 18 h, read-out: DIZ
[49] = test system: Escherichia coli; assay: Antibacterial activity against Escherichia coli MTCC 1573 at 1000 ug/ml after 18 hr by cup-plate method; details: MTCC 1573, 18 h, read-out: DIZ
[50] = test system: Escherichia coli; assay: Antibacterial activity against Escherichia coli MTCC 1573 at 200 ug/ml after 18 hr by cup-plate method; details: MTCC 1573, 18 h, read-out: DIZ
[51] = test system: Escherichia coli; assay: Antibacterial activity against Escherichia coli MTCC 1573 at 100 ug/ml after 18 hr by cup-plate method; details: MTCC 1573, 18 h, read-out: DIZ
[52] = test system: Pseudomonas fluorescens; assay: Antibacterial activity against Pseudomonas fluorescens MTCC 2421 at 100 ug/ml after 18 hr by cup-plate method; details: MTCC 2421, 18 h, read-out: DIZ
[53] = test system: Pseudomonas aeruginosa; assay: Antibacterial activity against Pseudomonas aeruginosa MTCC 424 at 1500 ug/ml after 18 hr by cup-plate method; details: MTCC 424, 18 h, read-out: DIZ
[54] = test system: Pseudomonas aeruginosa; assay: Antibacterial activity against Pseudomonas aeruginosa MTCC 424 at 1000 ug/ml after 18 hr by cup-plate method; details: MTCC 424, 18 h, read-out: DIZ

C(=N\c1nc[nH]n1)/c1cccs1
300 µg/mL: MIC [25] | MIC [27] | MIC [31] | MIC [32]
13 mm: zone of inhibition at 200 µg/mL [2] | zone of inhibition at 100 µg/mL [8] | zone of inhibition at 100 µg/mL [13] | zone of inhibition at 200 µg/mL [22] | zone of inhibition at 200 µg/mL [36] | zone of inhibition at 100 µg/mL [41] | zone of inhibition at 200 µg/mL [46]
16 mm: zone of inhibition at 200 µg/mL [7] | zone of inhibition at 500 µg/mL [11] | zone of inhibition at 1000 µg/mL [14] | zone of inhibition at 500 µg/mL [21] | zone of inhibition at 500 µg/mL [39] | zone of inhibition at 1000 µg/mL [42] | zone of inhibition at 200 µg/mL [50]
14 mm: zone of inhibition at 500 µg/mL [16] | zone of inhibition at 100 µg/mL [51]
11 mm: zone of inhibition at 200 µg/mL [17] | zone of inhibition at 100 µg/mL [23] | zone of inhibition at 100 µg/mL [45] | zone of inhibition at 100 µg/mL [52]
18 mm: zone of inhibition at 500 µg/mL [6] | zone of inhibition at 1500 µg/mL [9] | zone of inhibition at 1000 µg/mL [20] | zone of inhibition at 1000 µg/mL [33] | zone of inhibition at 1000 µg/mL [38] | zone of inhibition at 500 µg/mL [48] | zone of inhibition at 1000 µg/mL [54]
21 mm: zone of inhibition at 1500 µg/mL [34] | zone of inhibition at 1500 µg/mL [47]
10 mm: zone of inhibition at 100 µg/mL [18]
200 µg/mL: MIC [26] | MIC [28] | MIC [29] | MIC [30]
19 mm: zone of inhibition at 1500 µg/mL [19] | zone of inhibition at 1500 µg/mL [37] | zone of inhibition at 1500 µg/mL [43]
400 µg/mL: MIC [24]
22 mm: zone of inhibition at 1500 µg/mL [4] | zone of inhibition at 1500 µg/mL [15]
12 mm: zone of inhibition at 100 µg/mL [3]
20 mm: zone of inhibition at 1000 µg/mL [5] | zone of inhibition at 1000 µg/mL [49] | zone of inhibition at 1500 µg/mL [53]
15 mm: zone of inhibition at 500 µg/mL [1] | zone of inhibition at 200 µg/mL [12] | zone of inhibition at 500 µg/mL [35] | zone of inhibition at 200 µg/mL [40] | zone of inhibition at 500 µg/mL [44]
17 mm: zone of inhibition at 1000 µg/mL [10]
